11 molecules from patent US10794897B2, “System and methods for predicting drug-induced inotropic and pro-arrhythmia risk” (AnaBios Corporation, priority 2017, dated 2020) can be followed below.

Like-named read-outs stand apart in the source and are kept apart here.

Data set [1] concerns ex vivo human ventricular trabeculae preparation.
Data set [2] deals with human cardiomyocyte preparation. As to conditions: for concentration from which ACs were induced: human.
The test system of data set [3] is ex vivo human ventricular trabeculae preparation. In words: ex vivo human ventricular trabeculae force of contraction.
For data set [4], the system named is human cardiomyocyte preparation. In words: human cardiomyocyte contractility transients (system 20 validation with reference drugs). As to conditions: human cardiomyocytes.

In the case of `CC(C)NCC(O)c1ccc(NS(C)(=O)=O)cc1` (racemic) [sotalol, d,l-sotalol], in data set [1], the TR90 result is on record as “concentration-dependent increase”. Moreover, in data set [2], the sarcomere shortening entry is on record as “no effects” and the “concentration from which ACs were induced” value (from here on “concentration”) is 10 -fold the fETPC.

On to `COc1cc(N)c(Cl)cc1C(=O)NC1CCN(CCCOc2ccc(F)cc2)CC1OC` (stereo not shown) [cisapride], for which, in data set [2], the “AC (after-contraction) incidence” value is “seen starting at the fETPC” and the sarcomere shortening entry is recorded as “inhibited”.

As for `CC[C@H]1OC(=O)[C@H](C)[C@@H](O[C@H]2C[C@@](C)(OC)[C@@H](O)[C@H](C)O2)[C@H](C)[C@@H](O[C@@H]2O[C@H](C)C[C@H](N(C)C)[C@H]2O)[C@](C)(OC)C[C@@H](C)C(=O)[C@H](C)[C@@H](O)[C@]1(C)O` [clarithromycin], in data set [2], the sarcomere shortening entry is recorded as “inhibited” and the “concentration” value is on record as 10 -fold the fETPC.

As to `CN(CCOc1ccc(NS(C)(=O)=O)cc1)CCc1ccc(NS(C)(=O)=O)cc1` [dofetilide], in data set [3] (human ventricular trabeculae), the “MAC (maximum amplitude of force of contraction)” value was “no effects” and the TR90 result was “concentration-dependent increase”. For the same molecule, the AC incidence entry in data set [3] (human ventricular trabeculae, starting at the fETPC) was “observed starting at the fETPC”. Besides, in data set [2], the sarcomere shortening entry is given as “no effects” and the “concentration” value is reported as 10 -fold the fETPC.

For `O=c1[nH]c2ccccc2n1CCCN1CCC(n2c(=O)[nH]c3cc(Cl)ccc32)CC1` [domperidone], in data set [2], the “AC (after-contraction) incidence” value is given as “seen starting at the fETPC” and the sarcomere shortening entry was “inhibited”.

As for `CC(C)NCC(O)c1ccc(O)c(O)c1` (stereo not shown) [isoproterenol], in data set [1], the AC incidence entry is on record as “did not induce any ACs” and the TR90 entry is on record as “decrease”. For the same molecule, the “increase of MAC” value in data set [3] (human ventricular trabeculae, at 0.03 μM) is 315%. Also, in data set [2], the AC incidence result is on record as “induced no AC”, the CE incidence entry is “no CE incidence” and the TR90 result is reported as “decreased”. Also, in data set [4] (positive inotropes), the FSF entry is on record as “increased”, the maximum contraction velocity entry is “increased”, the “maximum contraction velocity time” value was “increased” and the maximum relaxation velocity entry was “increased”. Also, in data set [4] (positive inotropes), the “maximum relaxation velocity time” value is on record as “no effects”, the peak height entry is “increased”, the “time to 10% peak” value is listed as “decreased” and the “time to 50% peak” value is on record as “decreased”. Also, the time to peak entry in data set [4] (positive inotropes) is “no effects”.

Consider `C[C@@H]1CC(=O)NN=C1c1ccc(NN=C(C#N)C#N)cc1` [levosimendan], for which the AC incidence entry in data set [4] (at 10-fold the fETPC) is given as “levosimendan did”. In addition, in data set [4] (positive inotropes), the CE incidence result was “no CE incidence”, the FSF result is reported as “increased”, the TR90 result was “no effect” and the maximum contraction velocity result was “increased”. Further, in data set [4] (positive inotropes), the “maximum contraction velocity time” value is “no effect”, the maximum relaxation velocity result is on record as “increased”, the “maximum relaxation velocity time” value is recorded as “no effects” and the peak height entry is “increased”. Also, in data set [4] (positive inotropes), the “time to 10% peak” value is recorded as “no effect”, the “time to 50% peak” value is recorded as “no effect” and the time to peak result was “no effects”.

For the molecule `Cc1cccc(C)c1OCC(C)N` (stereo not shown) [mexiletine], in data set [2], the AC incidence result is given as “induced no ACs” and the sarcomere shortening result is “inhibited”.

`C=C[C@H]1C[N@@]2CC[C@H]1C[C@@H]2[C@@H](O)c1ccnc2ccc(OC)cc12` [quinidine]: in data set [2], the “AC (after-contraction) incidence” value is “concentration-dependent increases”, the “CE (contractility escape) incidence” value was “concentration-dependent increases” and the “TR90 (time to 90% relaxation)” value is given as “prolongation”.

As for `COc1ccccc1OCC(O)CN1CCN(CC(=O)Nc2c(C)cccc2C)CC1` (stereo not shown) [ranolazine], in data set [2], the AC incidence entry is reported as “induced no ACs” and the sarcomere shortening entry is reported as “inhibited”.

Usually IC50 stands for the concentration at which inhibition is half-maximal. Regarding `COc1ccc(CCN(C)CCCC(C#N)(c2ccc(OC)c(OC)c2)C(C)C)cc1OC` (stereo not shown) [verapamil], the IC50 in data set [3] (Homo sapiens, read-out: IC50 for decrease of MAC) was 1.46 µM. Also, in data set [4] (up to 222-fold the fETPC), the AC incidence entry is on record as “neither AC or CE incidence”, the CE incidence result is given as “neither AC or CE incidence” and the TR90 entry is listed as “no change”.
